Experimental data as given in ChEMBL document CHEMBL1131894, “N-phenylalkyl-substituted tropane analogs of boat conformation with high selectivity for the dopamine versus serotonin transporter” (Bioorg Med Chem Lett, 1999).

Legend:
[1] = biological target: T1, Sodium-dependent dopamine transporter (Rattus norvegicus, UniProt P23977); assay: Displacement of [3H]mazindol from cocaine binding site on Dopamine transporter (DAT)
[2] = biological target: T1, Sodium-dependent dopamine transporter; assay: Inhibition of [3H]dopamine uptake at striatal nerve endings by dopamine transporter
[3] = biological target: Sodium-dependent serotonin transporter (Rattus norvegicus, UniProt P31652); assay: Inhibition of [3H]5-HT uptake at striatal nerve endings by serotonin transporter
[4] = Selectivity of uptake of 5-HT to DA; format: functional

Sodium-dependent serotonin transporter, sequence (P31652 whole entry): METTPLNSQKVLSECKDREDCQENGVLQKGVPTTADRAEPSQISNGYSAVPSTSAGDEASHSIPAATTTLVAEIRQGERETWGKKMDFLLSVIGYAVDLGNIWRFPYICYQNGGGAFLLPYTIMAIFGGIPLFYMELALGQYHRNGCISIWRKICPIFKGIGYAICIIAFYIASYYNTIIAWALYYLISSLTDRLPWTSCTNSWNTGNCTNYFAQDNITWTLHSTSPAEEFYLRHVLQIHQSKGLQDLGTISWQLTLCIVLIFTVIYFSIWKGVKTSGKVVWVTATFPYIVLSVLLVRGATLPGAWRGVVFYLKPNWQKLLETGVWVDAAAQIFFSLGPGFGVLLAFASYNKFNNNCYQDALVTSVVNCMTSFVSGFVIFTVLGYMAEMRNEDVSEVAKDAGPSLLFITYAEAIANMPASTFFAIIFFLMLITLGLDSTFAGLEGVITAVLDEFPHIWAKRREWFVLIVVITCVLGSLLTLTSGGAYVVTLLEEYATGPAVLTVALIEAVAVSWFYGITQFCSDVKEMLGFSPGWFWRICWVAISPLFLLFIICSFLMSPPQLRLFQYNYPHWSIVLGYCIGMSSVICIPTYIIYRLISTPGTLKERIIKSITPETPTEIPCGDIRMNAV
T1 sequence (P23977 whole entry): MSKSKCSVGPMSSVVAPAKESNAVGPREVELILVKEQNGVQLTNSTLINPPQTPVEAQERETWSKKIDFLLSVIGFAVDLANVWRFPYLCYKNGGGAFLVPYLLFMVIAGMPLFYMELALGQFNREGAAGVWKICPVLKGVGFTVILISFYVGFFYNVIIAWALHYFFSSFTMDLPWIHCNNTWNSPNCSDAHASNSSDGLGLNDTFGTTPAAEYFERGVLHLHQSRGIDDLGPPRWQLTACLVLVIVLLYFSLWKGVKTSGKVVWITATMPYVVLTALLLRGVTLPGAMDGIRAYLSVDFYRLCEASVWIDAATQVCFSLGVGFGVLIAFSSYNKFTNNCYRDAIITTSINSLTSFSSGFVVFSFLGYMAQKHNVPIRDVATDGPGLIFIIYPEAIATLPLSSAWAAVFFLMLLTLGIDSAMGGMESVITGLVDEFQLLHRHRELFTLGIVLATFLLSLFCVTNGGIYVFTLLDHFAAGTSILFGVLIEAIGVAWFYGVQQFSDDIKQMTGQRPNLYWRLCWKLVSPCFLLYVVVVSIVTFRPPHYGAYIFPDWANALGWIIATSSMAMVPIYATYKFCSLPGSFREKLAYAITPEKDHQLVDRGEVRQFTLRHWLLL

Fc1ccc(C2C3CC[C@H](C[C@H]2c2ccc(F)cc2)N3CCCCc2ccccc2)cc1 (some centres undefined)
Ki [1]: 86.4 nM
Ki [2]: 210 nM
Ki [3]: 110 nM
Selectivity [4]: 0.52

Fc1ccc(C2C3CC[C@H](C[C@H]2c2ccc(F)cc2)N3CCc2ccccc2)cc1 (some centres undefined)
Ki [1]: 10 nM
Ki [2]: 26 nM
Ki [3]: > 1.3 nM
Selectivity [4]: > 50

Cc1ccc([C@@H]2C[C@H]3CCC(C2c2ccccc2)N3C)cc1 (some centres undefined)
Ki [1]: 6 nM
Ki [2]: 4.6 nM
Ki [3]: 120 nM
Selectivity [4]: 26

Fc1ccc(OCCN2C3CC[C@@H]2C[C@@H](c2ccc(F)cc2)C3c2ccc(F)cc2)cc1 (some centres undefined)
Ki [1]: 22 nM
Ki [2]: 27 nM
Ki [3]: 928 nM
Selectivity [4]: 34

Fc1ccc(C2C3CC[C@H](C[C@H]2c2ccc(F)cc2)N3CCCc2ccccc2)cc1 (some centres undefined)
Ki [1]: 16 nM
Ki [2]: 43 nM
Ki [3]: 608 nM
Selectivity [4]: 14

Fc1ccc(C2C3CCC(C[C@H]2c2ccc(F)cc2)N3)cc1 (some centres undefined)
Ki [1]: 49 nM
Ki [2]: 17 nM
Ki [3]: 41 nM
Selectivity [4]: 2.4

Cc1ccc([C@@H]2C[C@H]3CCC(C2c2ccccc2)N3CCc2ccccc2)cc1 (some centres undefined)
Ki [1]: 0.95 nM
Ki [2]: 1.6 nM
Ki [3]: 180 nM
Selectivity [4]: 113

Fc1ccc(C2C3CC[C@H](C[C@H]2c2ccc(F)cc2)N3CCC(c2ccccc2)c2ccccc2)cc1 (some centres undefined)
Ki [1]: > 7000 nM
Ki [2]: > 10000 nM
Ki [3]: > 20000 nM

Fc1ccc(C2C3CC[C@H](C[C@H]2c2ccc(F)cc2)N3Cc2ccccc2)cc1 (some centres undefined)
Ki [1]: 260 nM
Ki [2]: 170 nM
Ki [3]: 490 nM
Selectivity [4]: 2.9

CN1C2CC[C@@H]1C[C@@H](c1ccc(F)cc1)C2c1ccc(F)cc1 (some centres undefined)
Ki [1]: 31 nM
Ki [2]: 14 nM
Ki [3]: 460 nM
Selectivity [4]: 33
